Measured values reported in patent US12685312B2, “Sulfonamide apyrase inhibitors” (Texas Crop Science, Inc., priority 2022, dated 2026).

Columns and labels:
apyrase = assay: Screen for apyrase inhibitors (Method 1, in vitro phosphate-release absorbance assay); format: biochemical; settings: inhibitor conc at 1 mM stock, 1 hr room temperature, absorbance 630 nm; rounded average of two assay results
Procedure, shortened: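 Phosphate-release colorimetric assay (Windsor method) in 60 mM Hepes, 3 mM MgCl2, 3 mM CaCl2, 3 mM ATP, pH 6.5, with compound or DMSO control added. Released phosphate developed with ammonium molybdate and ascorbic acid/TCA, then stopped with citrate/acetic acid.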

[1] = system: Zymoseptoria tritici on wheat; assay: Greenhouse crop test (Method 3), Zymoseptoria tritici on wheat; format: in vivo; settings: for enhancement of Imtrex over Imtrex alone: Imtrex 0.02 L/ha
Experimental: (§1) Method 3: Greenhouse Crop Tests
In this method, exemplary compounds were evaluated for their ability to control Zymoseptoria tritici on wheat, Botrytis cinerea on tomatoes, Asian Soya Rust (Phakopsora pachyrhizi) on soybean, and Brown Rust (Puccinia recondita) on wheat, in a controlled greenhouse environment in combination with one of four fungicides, Amistar, Imtrex, Proline or Balaya. In these studies, soybean cultivar Siverka, tomato (Money maker) and wheat plants (JB Diego) were used. Seeds were sown in 9 cm diameter pots to a depth of 1 to 2 cm using Petersfield potting compost (75% medium grade peat, 12% screened sterilized loam, 3% medium grade vermiculite, 10% grit (5 mm screened, lime free), 1.5 kg PG mix per m3, lime to pH5.5-6.0 and wetting agent (Vitax Ultrawet 200 ml per m3) and germinated/grown at 23 C under a 16 h day/8 h night light regime. Plants were treated two to three weeks after sowing when they were at the BBCH 11 growth stage (first pair of true leaves (unifoliate) unfolded. A track sprayer was used to treat the plants with the mixture of commercial fungicide and test compound using a water volume of 200 L/ha. Plants were inoculated with the appropriate fungi (pathogen) 24 hours after treatment. Fungal pathogens used were Botrytis cinerea (Grey mold on tomato plants), Zymoseptoria tritici (Septoria leaf blotch on wheat plants), Puccinia triticina (Brown rust on wheat plants) and Phakopsora pachyrhizi (Asian soy rust on soybean plants). Four replicates were used for each combination of fungicide, pathogen and test compound. Each plant was evaluated once the disease symptoms were fully expressed between seven to twenty days (depending on the pathogen) for % control of the disease. Appropriate controls were used for all experiments, including an ‘inoculation check’ wherein plants were inoculated with their specific pathogen to assess disease levels. Also, each commercial fungicide was tested on its own as a part of each treatment, this being benchmark against which the experimental compounds were evaluated. […] That is, the present compounds, although not fungicidal by themselves, enhance the activity of fungicides, thus the enhancer compounds work synergistically in combination with fungicides to control disease.
In these studies the fungicide was applied at the following rates

Microdochium nivale = assay: In vitro assessment of combination activity with fungicides (Method 2); format: cell-based; settings: fungicide at a rate just below that giving any control; visual % control;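 also: scored as inactive active or highly active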
Experimental: (§2) Method 2: In Vitro Assessment of Combination Activity
(§3) Selected compounds were assessed in combination with fungicides against a range of commercially important plant pathogenic fungi.
(§4) The test was conducted as follows. A fungicide was applied to a fungal plant pathogen at a rate slightly below that at which it gave any control, in combination with a suitable dose of the test compound. The test compound was recorded as active if control of the pathogen was observed.
(§5) In more detail, the test was conducted as follows. For each combination of fungicide, pathogen and test compound, the following wells were used. Well 1 contained a fungal pathogen growing on agar, and a fungicide at a rate just below that at which it gave any control of the pathogen. Well 2 was the same as Well 1, except that the test compound was also added at Rate 1. Well 3 was the same as Well 2, except that the test compound was added at Rate 2, where Rate 2 was higher than Rate 1. Finally, as a benchmark, Well 4 was the same as Well 1, except that it contained the fungicide at a higher rate, at which it gave partial control of the pathogen. Each of the Wells 1 to 4 were run in duplicate, giving a total of 8 wells for each combination of fungicide, pathogen and test compound. For each well, after a suitable period of incubation, a visual assessment of the % control of the pathogen by the fungicide was made.
(§6) The following fungicides were used in this assay: azoxystrobin, fluxapyroxad, and desthio prothioconazole. The following fungal pathogens were used in this assay: First, a strain of Zymoseptoria tritici with a reduced susceptibility to strobilurin fungicides; second a strain of Zymoseptoria tritici with a reduced susceptibility to SDHI fungicides (i.e., those that inhibit succinate dehydrogenase); and third, Microdochium nivale.

[2] = system: Zymoseptoria tritici with a reduced susceptibility to SDHI fungicides; assay: as above; format: cell-based; settings: fungicide at a rate just below that giving any control; visual % control;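 also: scored as inactive active or highly active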
Experimental: as §2, §3, §4, §5, §6

[3] = system: Zymoseptoria tritici with a reduced susceptibility to strobilurin fungicides; assay: as above; format: cell-based; settings: fungicide at a rate just below that giving any control; visual % control;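 also: scored as inactive active or highly active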
Experimental: as §2, §3, §4, §5, §6

[4] = system: plant pathogenic fungi (Zymoseptoria tritici strains, Microdochium nivale); assay: In vitro combination assay (Method 2), overall comparison with Roux Compound 13; format: cell-based; settings: azoxystrobin, fluxapyroxad, desthio prothioconazole; three fungal strains
Experimental: as §2, §3, §4, §5, §6

[5] = system: Botrytis cinerea on tomatoes; assay: Greenhouse crop test (Method 3), Botrytis cinerea on tomatoes; format: in vivo; settings: Botrytis cinerea on tomato, Imtrex 0.005 L/ha
Experimental: as §1
In this method, exemplary compounds were evaluated for their ability to control Zymoseptoria tritici on wheat, Botrytis cinerea on tomatoes, Asian Soya Rust (Phakopsora pachyrhizi) on soybean, and Brown Rust (Puccinia recondita) on wheat, in a controlled greenhouse environment in combination with one of four fungicides, Amistar, Imtrex, Proline or Balaya. In these studies, soybean cultivar Siverka, tomato (Money maker) and wheat plants (JB Diego) were used. Seeds were sown in 9 cm diameter pots to a depth of 1 to 2 cm using Petersfield potting compost (75% medium grade peat, 12% screened sterilized loam, 3% medium grade vermiculite, 10% grit (5 mm screened, lime free), 1.5 kg PG mix per m3, lime to pH5.5-6.0 and wetting agent (Vitax Ultrawet 200 ml per m3) and germinated/grown at 23 C under a 16 h day/8 h night light regime. Plants were treated two to three weeks after sowing when they were at the BBCH 11 growth stage (first pair of true leaves (unifoliate) unfolded. A track sprayer was used to treat the plants with the mixture of commercial fungicide and test compound using a water volume of 200 L/ha. Plants were inoculated with the appropriate fungi (pathogen) 24 hours after treatment. Fungal pathogens used were Botrytis cinerea (Grey mold on tomato plants), Zymoseptoria tritici (Septoria leaf blotch on wheat plants), Puccinia triticina (Brown rust on wheat plants) and Phakopsora pachyrhizi (Asian soy rust on soybean plants). Four replicates were used for each combination of fungicide, pathogen and test compound. Each plant was evaluated once the disease symptoms were fully expressed between seven to twenty days (depending on the pathogen) for % control of the disease. Appropriate controls were used for all experiments, including an ‘inoculation check’ wherein plants were inoculated with their specific pathogen to assess disease levels. Also, each commercial fungicide was tested on its own as a part of each treatment, this being benchmark against which the experimental compounds were evaluated. […]

% Inhibition of Apyrase (apyrase) [%]	SMILES	enhancer activity in the combination assay compared with Roux Compound 13 [4]	further results
65	Cc1ccc(NS(=O)(=O)c2ccc(C(=O)N3CCc4ccccc43)cc2)cc1 [I-385, 4-(indoline-1-carbonyl)-N-(p-tolyl)benzenesulfonamide]	–	enhancement of Imtrex over Imtrex alone [1]: greater than 40%
–	O=C(Nc1cccc([N+](=O)[O-])c1)c1cccc(S(=O)(=O)Nc2ccc(Br)cc2)c1 [Roux compound 13, reference compound]	little or no activity	enhancement of activity of azoxystrobin (Microdochium nivale): enhancing the activity; enhancement of activity of azoxystrobin [2]: failing to enhance activity; enhancement of activity of desthio prothioconazole [2]: failing to enhance activity; enhancement of activity of fluxapyroxad [2]: failing to enhance activity; enhancement of activity of azoxystrobin [3]: failing to enhance activity; enhancement of activity of desthio prothioconazole [3]: failing to enhance activity; enhancement of activity of fluxapyroxad [3]: failing to enhance activity
72	O=C(Nc1cccc(Br)c1)c1cccc(S(=O)(=O)Nc2ccc3c(c2)OCO3)c1 [I-186, 3-(N-(benzo[d][1,3]dioxol-5-yl)sulfamoyl)-N-(3-bromophenyl)benzamide]	superior enhancer activity than Roux Compound 13	–
66	N#Cc1ccccc1S(=O)(=O)Nc1cccc(C(=O)Nc2cccc(C(F)(F)F)c2)c1 [I-229, 3-((2-cyanophenyl)sulfonamido)-N-(3-(trifluoromethyl)phenyl)benzamide]	superior enhancer activity than Roux Compound 13	–
71	O=C(Nc1ccc2c(c1)OCO2)c1ccccc1NS(=O)(=O)c1cccc(C(F)(F)F)c1 [I-213, N-(benzo[d][1,3]dioxol-5-yl)-2-((3-(trifluoromethyl)phenyl)sulfonamido) benzamide]	superior enhancer activity than Roux Compound 13	enhancement in combination with Imtrex over Imtrex alone [5]: about 30%
67	O=C(Nc1cccc(S(=O)(=O)Nc2ccc(Br)cc2)c1)c1ccc(Cl)nc1 [I-221, N-(3-(N-(4-bromophenyl)sulfamoyl)phenyl)-6-chloronicotinamide]	superior enhancer activity than Roux Compound 13	–
75	Cc1ccc(C(=O)Nc2cccc(NS(=O)(=O)c3ccccc3)c2)cc1F [I-209, 3-fluoro-4-methyl-N-(3-(phenylsulfonamido)phenyl)benzamide]	superior enhancer activity than Roux Compound 13	–
69	O=C(Nc1cccc(C(F)(F)F)c1)c1cccc(NS(=O)(=O)c2cccc(Cl)c2)c1 [I-317, 3-((3-chlorophenyl)sulfonamido)-N-(3-(trifluoromethyl)phenyl)benzamide]	superior enhancer activity than Roux Compound 13	–
73	O=C(Nc1cccc(-c2ccn[nH]2)c1)c1cccc(S(=O)(=O)Nc2ccc(Br)cc2)c1 [I-239, N-(3-(1H-pyrazol-5-yl)phenyl)-3-(N-(4-bromophenyl)sulfamoyl)benzamide]	superior enhancer activity than Roux Compound 13	enhancement of Imtrex over Imtrex alone [1]: about 30%
54	N#Cc1cccc(NC(=O)c2cccc(S(=O)(=O)Nc3ccc(Br)cc3)c2)c1 [I-16, 3-(N-(4-bromophenyl)sulfamoyl)-N-(3-cyanophenyl)benzamide]	superior enhancer activity than Roux Compound 13	–
76	O=C(Nc1ccc(Br)cc1)c1cccc(S(=O)(=O)Nc2cc(C(F)(F)F)ccc2Cl)c1 [I-178, N-(4-bromophenyl)-3-(N-(2-chloro-5-(trifluoromethyl)phenyl)sulfamoyl)benzamide]	superior enhancer activity than Roux Compound 13	–
59	O=C(Nc1ccccc1)c1ccc(S(=O)(=O)Nc2ccccc2)cc1 [I-392, N-phenyl-4-(N-phenylsulfamoyl)benzamide]	–	enhancement of activity of desthio prothioconazole (Microdochium nivale): highly active; enhancement of activity of azoxystrobin [2]: enhanced the activity; enhancement of activity of desthio prothioconazole [2]: highly active; enhancement of activity of azoxystrobin [3]: enhanced the activity; enhancement of activity of desthio prothioconazole [3]: highly active
63	O=C(Nc1ccc2c(c1)OCO2)c1ccc(S(=O)(=O)Nc2ccccc2Cl)cc1 [I-388, N-(benzo[d][1,3]dioxol-5-yl)-4-(N-(2-chlorophenyl)sulfamoyl)benzamide]	–	enhancement of Balaya ([1]; Balaya 0.0015 L/ha): greater than 45%
70	O=C(Nc1cccc(C(F)(F)F)c1)c1cccc(NS(=O)(=O)c2cccc(C(F)(F)F)c2)c1 [I-217, N-(3-(trifluoromethyl)phenyl)-3-((3-(trifluoromethyl)phenyl)sulfonamido) benzamide]	superior enhancer activity than Roux Compound 13	–
66	O=C(Nc1cccc(NS(=O)(=O)c2ccc(Br)cc2Cl)c1)c1ccco1 [I-234, N-(3-((4-bromo-2-chlorophenyl)sulfonamido)phenyl)furan-2-carboxamide]	superior enhancer activity than Roux Compound 13	enhancement of activity of desthio prothioconazole (Microdochium nivale): enhancing fungicidal activity; enhancement of activity of fluxapyroxad (Microdochium nivale): enhancing fungicidal activity; enhancement of activity of desthio prothioconazole [2]: enhancing fungicidal activity; enhancement of activity of fluxapyroxad [2]: enhancing fungicidal activity; enhancement of activity of desthio prothioconazole [3]: enhancing fungicidal activity
73	O=C(/C=C/c1ccco1)Nc1cccc(S(=O)(=O)Nc2ccc(Br)cc2)c1 [I-226, (E)-N-(3-(N-(4-bromophenyl)sulfamoyl)phenyl)-3-(furan-2-yl)acrylamide]	superior enhancer activity than Roux Compound 13	–
77	O=C(Nc1ccc(Br)cc1)c1cccc(S(=O)(=O)Nc2ccc3c(c2)OCO3)c1 [I-201, 3-(N-(benzo[d][1,3]dioxol-5-yl)sulfamoyl)-N-(4-bromophenyl)benzamide]	superior enhancer activity than Roux Compound 13	–
51	COc1ccc(NC(=O)c2cccc(S(=O)(=O)Nc3ccc(Br)cc3)c2)cc1 [I-18, 3-(N-(4-bromophenyl)sulfamoyl)-N-(4-methoxyphenyl)benzamide]	superior enhancer activity than Roux Compound 13	–
65	NS(=O)(=O)c1cccc(NC(=O)c2ccc(S(=O)(=O)Nc3ccc(Cl)cc3)cc2)c1 [I-387, 4-(N-(4-chlorophenyl)sulfamoyl)-N-(3-sulfamoylphenyl)benzamide]	–	enhancement in combination with Imtrex over Imtrex alone [5]: about 30%
